Laboratory results taken from paper PMC5841205, “Pharmacological targeting of apelin impairs glioblastoma growth” (Brain, 2017).

Columns and labels:
[1] = tested on: GSCs (glioblastoma patient-derived cells with stem-like properties); test: Tumoursphere formation, apelin peptides; format: cell-based, human; conditions: for number of tumourspheres: 1 μM apelin peptide in mitogen-free medium (MF), GSCs #1, #9, #12 and #13, vs MF, 5 days
Excerpt: Glioblastoma patient-derived cells with stem-like properties (GSCs) were isolated as previously described ([Treps et al., 2016]). Briefly, tumours were dissociated using the MACsDissociator (Miltenyi) and each GSC characterized for their self-renewal capabilities, cell surface antigens, expression of stemness markers, their ability to differentiate, and to initiate tumour formation (Supplementary Table 1). GSCs 1–16 were maintained as spheres in NS medium (DMEM-F12, with N2, G5 and B27 supplements, GlutaMAX™ and antibiotics, Life Technologies). To induce differentiation in GSCs, the three supplements were omitted and 10% foetal bovine serum added to the media.
(§1) To test the tumoursphere formation, GSCs (100 cells/µl) were plated in triplicate in indicated media as previously described ([Harford-Wright et al., 2016]). Cells were manually dissociated each day and a single cell suspension maintained until Day 5. Tumourspheres were counted in five random fields of view, and the mean from the triplicate of each condition calculated from three independent experiments.
(§2) (C) Confocal analysis of NESTIN (green), SOX2 (red) and nuclei (DAPI, blue) in GSC#1 grown in NS, MF, human brain endothelial cell-conditioned medium (EC-CM) or MF+APLN (1 μM). Scale bars = 20 µm. (D) Linear regression plot of in vitro limiting dilution assay (LDA) for GSC#1 in NS, EC-CM, MF, and MF+APLN (1 μM). Data are representative of n = 2. […] (F) Stem cell frequency in GSCs #1, #2, #4, #9 and #12 in response to MF and APLN conditions. […] (H) EC received non-silencing RNA (sic) or siRNA targeting APLN (siAPLN) and APLN knockdown efficiency assessed by RT-PCR and ELISA. […] (K) FACS analysis of the proliferation marker Ki67 in GSCs #4 and #9 in NS and MF+APLN conditions. All panels are representative of n = 3, unless otherwise specified.

GSCs #1, #4, #9, and #12 = test: Cell viability (UptiBlue), GSCs; format: cell-based, human; conditions: TMZ 100 μM, GSCs #1, #4 and #9, serum-containing medium, 3 days
Protocol: (§3) Cell viability in response to MM54 was tested using the UptiBlue reagent (Interchim), a fluorometric/colorimetric growth indicator based on the detection of metabolic activity. Briefly, cells were seeded at a density of 2 × 10^3 per well, UptiBlue added at a concentration of 10% v/v and cells maintained at 37°C 5% CO2 until analysis. Absorbance was measured at Day 5 following treatment at 570 and 600 nm on a FLUOStar OPTIMA (BMG Labtech) plate reader, and the percentage of cell viability calculated according to the manufacturer’s instructions.
(§4) Figure 5 Pharmacological inhibition of APLNR by MM54 impairs the in vitro expansion of temozolomide-resistant GSCs. (A) Cell viability following treatment with DMSO, MM54 (2, 20 and 100 μM) or temozolomide (TMZ, 50 μM) was measured using UptiBlue in different cell types for 3 days. […] (B and C) Cell viability following treatment with DMSO or TMZ (100 μM) was measured using UptiBlue in GSCs #1, #4, #9, and #12 for 3 days. […] (D) GSC#1 viability was assessed following combined treatment with MM54 (0.2–20 μM) and TMZ (constant ratios TMZ:MM54 2.5:1, 5:1, and 10:1) in NS and human brain endothelial cell-conditioned medium (EC-CM) conditions. (E and F) Tumoursphere per field of view (fov) and ALDH activity were assessed in response to MM54 (0.2–100 μM) or TMZ (10–100 μM) treatment at Day 5. […]

[2] = tested on: LN229 glioblastoma cell line; test: Cell viability (UptiBlue), LN229; format: cell-based, human; conditions: TMZ
Protocol: as §3, §4

[3] = tested on: U87 glioblastoma cell line; test: Cell viability (UptiBlue), U87; format: cell-based, human
Protocol: as §3, §4

[4] = tested on: GSCs (glioblastoma patient-derived cells with stem-like properties); test: Tumoursphere formation, APLNR antagonists and TMZ; format: cell-based, human; conditions: GSC#1, TMZ 10–100 μM, Day 5
Protocol: as §1
(§5) Figure 4 Pharmacological inhibition of APLNR impairs the effects of the endothelial secretome on GSCs by inhibition of GSK3β signalling. (A) Molecular structure and primary sequence of the competitive APLNR antagonist MM54. […] (J) Reverse protein phase array (RPPA) from the TCGA database were analysed in low and high APLNR expressing glioblastoma samples. *P < 0.05; **P < 0.01 compared to the low APLNR condition. […] (N) GSC #1 received sic (control) or GSK3B targeting siRNA (siGSK3B) and tumoursphere per field of view was quantified in MF supplemented with purified apelin (APLN, 1 μM). *P < 0.05 compared to the sic MF condition.
Figure 5 Pharmacological inhibition of APLNR by MM54 impairs the in vitro expansion of temozolomide-resistant GSCs. (A) Cell viability following treatment with DMSO, MM54 (2, 20 and 100 μM) or temozolomide (TMZ, 50 μM) was measured using UptiBlue in different cell types for 3 days. […]

GSC#1 ALDH activity = test: ALDH activity (ALDEFLUOR flow cytometry); format: cell-based, human
Protocol: Analysis of aldehyde dehydrogenase (ALDH) activity was performed using the ALDEFLUOR™ assay kit (Stem Cell Technologies). Briefly, cells were incubated with ALDEFLUOR alone or in combination with an ALDH activity inhibitor (DAEB) at 37°C for 45 min. This flow cytometry-based staining allows monitoring ALDH activity in stem, progenitor and cancer precursor cells. The ALDH activity is considered positive in comparison to cells incubated with DEAB reagent.
(§6) Figure 4 Pharmacological inhibition of APLNR impairs the effects of the endothelial secretome on GSCs by inhibition of GSK3β signalling. (A) Molecular structure and primary sequence of the competitive APLNR antagonist MM54. […] (C) The percentage of calcium flux inhibition following MM54 treatment (0.4–10 μM) in the G-protein coupled receptor hits. (D) Tumoursphere per field of view (fov) in response to MM54 (0–4 μM) treatment in GSC#1 maintained in human brain endothelial cell-conditioned medium (EC-CM) and apelin-supplemented mitogen-free MF media (APLN, 1 μM) for 5 days. *P < 0.05 compared to EC-CM DMSO control, ^#P < 0.05 compared to apelin DMSO control. […] (F) Stem cell frequency in apelin supplemented media in response to MM54 (2 μM) in GSCs #1, #4, #9 and #12. *P < 0.05 compared to the vehicle condition. (G) Flow cytometry analysis of the percentage of ALDH positive and negative GSC #1 in response to 2, 10 or 20 μM of MM54 at Day 5. ALDH activity corresponds to the percentage of cells that contains ALDH activity (positive) or not (negative), normalized to the vehicle condition. *P < 0.05; ***P < 0.001 compared to the vehicle condition. […] (J) Reverse protein phase array (RPPA) from the TCGA database were analysed in low and high APLNR expressing glioblastoma samples. *P < 0.05; **P < 0.01 compared to the low APLNR condition. […] (N) GSC #1 received sic (control) or GSK3B targeting siRNA (siGSK3B) and tumoursphere per field of view was quantified in MF supplemented with purified apelin (APLN, 1 μM). *P < 0.05 compared to the sic MF condition.
as §4

endothelial cells = conditions: ref Kleinz and Davenport, 2005; cited from earlier work
Excerpt: Moreover, apelin has been implicated in physiological and pathological angiogenesis ([Kaelin et al., 2007]). […] In keeping with this, a recent study proposed apelin as a marker for monitoring tumour vessel normalization and response to anti-angiogenic therapy ([Zhang et al., 2016]; [Zuurbier et al., 2017]).

GSC#1 [5] = conditions: GSC#1, synthetic apelin 1 μM added to MF
Protocol: as §2

[6] = tested on: GSCs (glioblastoma patient-derived cells with stem-like properties)
Protocol: as §2

GSCs #4 and #9 = conditions: GSCs #4 and #9, apelin-supplemented MF
Protocol: as §2

GSC#1 [7] = test: Tumoursphere formation, tideglusib; format: cell-based, human; conditions: GSC#1, tideglusib 2.5 μM with apelin 1 μM
Protocol: as §1
as §5, with “MM54. […] (C) The percentage of calcium flux inhibition following MM54 treatment (0.4–10 μM) in the G-protein coupled receptor hits.” for “MM54.”

GSC #1 = test: Limiting dilution assay, tideglusib; format: cell-based, human; conditions: GSC#1, tideglusib 2.5 μM with apelin 1 μM
Protocol: as §6, with “5.” for “5. ALDH activity corresponds to the percentage of cells that contains ALDH activity (positive) or not (negative), normalized to the vehicle condition. *P < 0.05; ***P < 0.001 compared to the vehicle condition.”

pyr-apelin-13
number of tumourspheres ([1]; n = 3): increased the number of tumourspheres compared to mitogen-free media

Cn1nnc2c(C(N)=O)ncn2c1=O [TMZ, Temozolomide]
viability, GSCs grown as adherent differentiated cells (GSCs #1, #4, #9, and #12): reduces the viability | viability, LN229 [2]: significantly reduced the viability | viability, U87 ([3]; TMZ): significantly reduced the viability | viability, U87 grown as adherent differentiated cells ([3]; TMZ 100 μM, serum-containing medium, 3 days): reduces the viability | concentrations needed for tumoursphere impairment comparable to MM54 [4]: required much higher concentrations to achieve comparable results | concentrations needed for ALDH impairment comparable to MM54 (GSC#1 ALDH activity; GSC#1, TMZ 10–100 μM, Day 5): required much higher concentrations to achieve comparable results | activity of the stem marker ALDH, TMZ alone (GSC#1 ALDH activity; TMZ alone): does not alter the activity of the stem marker ALDH | potentiation of MM54 effect on ALDH activity (GSC#1 ALDH activity; TMZ with MM54 suboptimal dose <2 μM, MM54:TMZ 1:2.5, 1:5, 1:10): significantly potentiates the effects of MM54 | percentage of ALDH-positive cells, TMZ combined with suboptimal dose of MM54 (GSC#1 ALDH activity; TMZ with suboptimal dose of MM54): profound alterations in the percentage of ALDH-positive cells

apelin-13
endothelial cell proliferation and vessel sprouting (endothelial cells): induces proliferation and vessel sprouting in endothelial cells | rescue of NESTIN and SOX2 expression and ability to form tumourspheres (GSC#1 [5]): rescued by the addition of synthetic apelin | frequency of colony-forming cells ([6]; GSC#1, apelin 1 μM in MF vs MF, two weeks, n = 2): increase in the frequency of colony-forming cells | frequency of stem cells ([6]; GSCs #1, #2, #4, #9 and #12, apelin vs MF): increased the frequency of stem cells | proliferation (Ki67) of GSCs (GSCs #4 and #9): did not observe any obvious effect | number of tumourspheres ([1]; n = 3): increased the number of tumourspheres compared to mitogen-free media | potency at sustaining GSCs (tumourspheres) ([1]; 1 μM, compared among apelin-13, pyr-apelin-13 and apelin-36): most potent at sustaining GSCs | tumourspheres, increasing concentrations ([1]; GSC#1, increasing apelin-13 concentrations in MF, n = 3): potent and sustained increase in tumourspheres from the lowest concentration | stem properties of GSCs in APLN-depleted EC-CM ([1]; GSC#1 in siAPLN EC-CM plus apelin 1 μM, tumoursphere and LDA): restored this effect | ability of GSCs to expand as tumourspheres ([1]; panel of 16 patient-derived GSCs, apelin-supplemented MF vs MF, n = 3): significantly increased the ability of GSCs to expand as tumourspheres

O=c1sn(-c2cccc3ccccc23)c(=O)n1Cc1ccccc1 [tideglusib]
effect on apelin-mediated increase in tumourspheres (GSC#1 [7]): apelin was less potent at increasing tumourspheres and self-renewal | effect on apelin-mediated increase in self-renewal (LDA) (GSC #1): apelin was less potent at increasing tumourspheres and self-renewal
